The test system of one test is pol-β null cells (88TAg). Kind of test: Growth inhibition assay (modified MTT, MTS). It counts as cell-based, mouse. Particulars: MTS viability 48 hr after 1-2 hr exposure. On the procedure: (§1) Culture Conditions and Cell Cytotoxicity Assays. Transformed MEFs were cultured at 37° C. in a humidified incubator with 10% CO2 in DMEM supplemented with 10% fetal bovine serum, penicillin (50 units/ml), streptomycin (50 μg/ml) and Glutamax (4 mM). Human embryonic kidney cells (293T) were cultured similarly in DMEM supplemented with 10% fetal bovine serum, penicillin (50 units/ml), streptomycin (50 μg/ml) and Glutamine (4 mM). TMZ, MMS and MMC induced cytotoxicity was determined by growth inhibition assays. Briefly, cells were seeded in 96-well dishes at 1250 cells/well. After 24 hours, cells (quadruplicate wells) were exposed to serial dilutions of damaging agent in growth media for 1-2 hours (or as indicated in the text) at 37° C. Drug-containing medium was replaced with fresh medium and the plates were incubated at 37° C. for 48 hours at which point the total cell number was determined by a modified MTT assay (MTS; Promega). Metabolically active cells were quantified by the bioreduction of the MTS tetrazolium compound by recording absorbance at 490 nm using a microplate reader. Results were calculated from the average of four separate experiments and are reported as the % of treated cells relative to the cells in control wells (% Control).

Another test deals with γ-H2AX. The experiment in a line: γ-H2AX immunoblotting. As to conditions: MMS 1 hr or TMZ 2 hr exposure. It counts as cell-based, mouse. On the procedure: For γ-H2AX immunoblotting, protein was prepared as follows: briefly, 6×10^5 cells were seeded into 150 mm dishes and incubated for 24 hours at 10% CO2 at 37° C. Cells were treated with MMS and TMZ for 1 or 2 hr respectively, and whole cells were scraped from the plates in 1×PBS, washed, and immediately placed on dry ice. Thawed pellets were re-suspended in a 1:1 ratio of RIPA buffer and Laemmli buffer. Samples were boiled for 5 minutes and protein from an equal cell number was added to each well. Protein was separated by electrophoresis in a 12% SDS-polyacrylamide gel and electro-transferred to a […] nitrocellulose membrane (Trans-Blot, Bio-Rad). Membranes were blocked for 20 minutes in a 3% dried milk/TBS solution at room temperature and incubated with 0.5-1 μg/ml of anti-phospho-H2AX (Serine 139) (Upstate) prepared in TBS/3% dried milk and 0.1% Tween20 over night at 4° C. Membranes were washed twice with water and incubated with horseradish peroxidase (HRP)-conjugated secondary antibody (goat anti-rabbit HRP; Bio-Rad) at room temperature for 1.5 hour. Following a series of washes with water and TBS, HRP activity was detected using the Super Signal West Femto reagent (Pierce). Each membrane was re-probed with anti-PCNA to correct for differences in protein loading, and densitometry was used to quantitate with Quantity One 1-D analysis software (BioRad).
Background: In western blotting, separated proteins are transferred to a membrane and probed.

The subject of a further test is Wt cells (92TAg). The experiment in a line: TMZ growth inhibition assay (modified MTT, MTS). It counts as cell-based. Particulars: Mus musculus, TMZ exposure 48 hr. On the procedure: as §1
In test [1] the test system is MDA-MB-231 cells with Mpg/Aag over-expression combined with pol-β knockdown. Kind of test: Temozolomide growth inhibition assay (MTS). Particulars: TMZ 48 hours; compared to the parental MDA-MB-231 cells. It counts as cell-based, human. As to the method:
Culture Conditions and Cell Cytotoxicity Assays. Human Mpg over-expression, human pol-β knockdown and human pol-β over-expressing MDA-MB-231 breast cancer cell lines were cultured at 37° C. in a humidified incubator with 5% CO2 in RPMI 1640 (Cambrex Biosciences Group, Walkersville, Md.) supplemented with 10% heat inactivated fetal bovine serum and gentamicin (10 μg/ml). Temozolomide induced cytotoxicity was determined by growth inhibition assays. Briefly, cells were seeded in 96-well dishes at 2000 cells/well. After 24 hours, cells (quadruplicate wells) were exposed to serial dilutions of Temozolomide in growth media at 37° C. for 48 hours at which point the total cell number was determined by a modified 3-(4,5-dimethylthiazol-2-yl)-2,5-diphenyltetrazolium bromide (MTT) assay (MTS; Promega Madison, Wis.) (Cory et al., Cancer Communications; 3(7):207-12 (1991)). Metabolically active cells were quantified by the bioreduction of the MTS tetrazolium compound by recording absorbance at 490 nm using a microplate reader. Results were calculated from the average of four separate experiments and are reported as the % of treated cells relative to the cells in control wells (% Control).

Test [2] deals with Wt pol-β knockdown cells over-expressing hAag (wt hAag.2/polβ-KD.4, wt hAag.3/polβ-KD.4). The experiment in a line: TMZ growth inhibition assay (modified MTT, MTS). It counts as cell-based, mouse. As to conditions: for IC50: Mus musculus. From the text:
Cell Lines and Transfection Conditions. Transformed MEF cell lines (92TAg, Wt; 88TAg, pol-β null; 308TAg, Aag null and 283TAg, pol-β null/Aag null) have been described previously and are available from the ATCC. 293T cells were a gift from J. O'Bryan (NIEHS, NIH). Primary cultures of pol-λ, null MEFs were a kind gift from C.A. Reynaud (Faculte de Medecine Necker-Enfants Malades, Paris, France). The pol-ι null MEFs were derived from C129SvJ mice as described previously and identified by PCR to confirm the pol-ι null mutation. These were immortalized by SV40 large T-antigen (370TAg, pol-λ, null; 369TAg, pol-ι null) as described previously. Human Aag over-expressing cell lines were prepared as follows: briefly, 1.5×10^5 cells were seeded into 60 mm dishes and incubated for 24-30 hours at 10% CO2 at 37° C. The Aag expression plasmid (pRS1422) was transfected using FuGene 6 Transfection Reagent (Roche Diagnostic Corp) according to the manufacturer's instructions. Stable cell lines were selected in G418 (600 μg/ml) for 2 weeks, individual clones were amplified and 20 μg of nuclear extract was analyzed by immunoblotting for the expression of human Aag protein and then re-probed for expression of pol-β and PCNA.
Transfection of the pSuper siRNA plasmids was completed as follows: Briefly, 1.5×10^5 cells were seeded into 60 mm dishes and incubated for 24-30 hours at 10% CO2 at 37° C. […] For transient transfections, cells were lysed 24 hours post transfection by boiling in Laemmli buffer and analyzed by immunoblotting for the expression of the V5-pol-β transgene using anti-V5 (Invitrogen). […] Individual clones were amplified and 20 μg of nuclear extract was analyzed by immunoblotting for the expression of endogenous pol-β protein using the Nucbuster nuclear protein extract reagent (Novagen) and then re-probed for expression of PCNA as a loading control.
Culture Conditions and Cell Cytotoxicity Assays. […] TMZ, MMS and MMC induced cytotoxicity was determined by growth inhibition assays. […]

The term IC50 denotes the concentration that gives 50% inhibition. A higher IC50 goes with weaker potency in that assay.

On to `CO[C@@]12[C@H](COC(N)=O)C3=C(C(=O)C(C)=C(N)C3=O)N1C[C@@H]1N[C@@H]12` [MMC, Mitomycin C], for which the “sensitivity of pol-β null cells relative to Wt and other null cells” value with pol-β null cells (88TAg) was “equally sensitive”.

As for `COS(C)(=O)=O` [MMS, Methyl methanesulfonate], the “γ-H2AX expression in pol-β deficient cells as compared to Wt cells” value in the test with γ-H2AX is reported as “clear increase”.

With `Cn1nnc2c(C(N)=O)ncn2c1=O` [TMZ, temozolomide], the IC50 was 2.6 mM with Wt cells (92TAg); 1.25 mM in test [2] (TMZ exposure 2 hr, viable cells after 48 hr, wt hAag.2/polβ-KD.4 and wt hAag.3/polβ-KD.4 cells); ~0.7 mM in test [2] (TMZ exposure 48 hr, wt hAag.3/Polβ-KD.4 cells). For the same molecule, in test [1], the “decrease in IC50” value is on record as ~10 fold. The TMZ efficacy improved in test [2] (TMZ exposure 48 hr, hAag over-expression plus pol-β knockdown compared with Wt cells) is recorded as ~4 fold.

Source of the values: patent publication US20100048682A1, “INHIBITING DNA POLYMERASE BETA TO ENHANCE EFFICACY OF ANTICANCER AGENTS” (UNIVERSITY OF PITTSBURGH - OF THE COMMONWEALTH SYSTEM OF …, priority 2005, published 2010).
